According to patent publication US20050063999A1, “Use of at least one (dihydro)jasmonic acid derivative as a desquamating agent” (priority 2003, published 2005):

Test system: stratum corneum
Experiment: Desquamating power: count of corneocytes released from isolated stratum corneum discs after incubation with the test compound
Assay type: cell-based
Details: 1 % by weight compound in PBS buffer + 0.1% Triton X100, pH 7.4, 37° C., 24 hours, with stirring
Protocol: The desquamating power of the compound prepared in Example 1 above was studied. This test comprised counting the corneocytes released after incubating batches of stratum corneum, isolated by trypsin/heat from plastic surgery operations, in the presence of the test compound.
Discs of stratum corneum 4 mm in diameter were cut out with a punch and placed at the bottom of a 96-well plate. Two different stratum corneum samples were used.
A solution was prepared comprising 1 % by weight of compound of Example 1 in a PBS buffer supplemented at 0.1% with Triton X100. The pH of the solution was readjusted to 7.4.
50 microliters of test solution or of control solution (PBS buffer supplemented at 0.1% with Triton X100) were added to each well. The experiment was repeated three times. The mixture was incubated at 37° C., with stirring, for 24 hours.
10 microliters of solution were then collected and placed in a Mallassez cell. The corneocytes released were counted under a microscope.
The following results were obtained, which express the mean, for the three trials, of the number of corneocytes released per microliter. The corneocyte fragments were not counted.

**Q.** For CCCCCC1C(CC(=O)O)CCC1OC (racemic) [Compound of Example 1], which “number of corneocytes released per microliter, mean (3 trials per sample), Sample No. 1” value (stratum corneum Sample No. 1, control 6 ± 1) is on record?
**A.** Its value is 17 ± 6 per microliter.

**Q.** And the “number of corneocytes released per microliter, mean (3 trials per sample), Sample No. 2” value (stratum corneum Sample No. 2, control 6 ± 2)?
**A.** The value was 16 ± 6 per microliter.
